Numbers after ± are expanded uncertainties.
Test: mn = molality of the nth substance listed, in mol/kg
Conditions: 100 kPa, Liquid, Vibrating tube method

O=C(O)[C@@H]1CCCN1 [L-proline] + O
mass density [kg/m3]
Conditions	278.65 K	279.15 K	279.65 K	280.15 K	280.65 K	281.15 K	281.65 K	282.15 K	282.65 K	283.15 K
m1 = 0.0132	1000.41 ± 0.11	1000.39 ± 0.11	1000.38 ± 0.11	1000.35 ± 0.11	1000.33 ± 0.11	1000.3 ± 0.11	1000.27 ± 0.11	1000.23 ± 0.11	1000.19 ± 0.11	1000.15 ± 0.11
m1 = 0.0326	1001.08 ± 0.11	1001.06 ± 0.11	1001.04 ± 0.11	1001.02 ± 0.11	1000.99 ± 0.11	1000.97 ± 0.11	1000.93 ± 0.11	1000.89 ± 0.11	1000.85 ± 0.11	1000.81 ± 0.11
m1 = 0.0542	1001.81 ± 0.11	1001.79 ± 0.11	1001.77 ± 0.11	1001.75 ± 0.11	1001.72 ± 0.11	1001.69 ± 0.11	1001.66 ± 0.11	1001.62 ± 0.11	1001.57 ± 0.11	1001.53 ± 0.11
m1 = 0.0692	1002.32 ± 0.11	1002.3 ± 0.11	1002.27 ± 0.11	1002.25 ± 0.11	1002.22 ± 0.11	1002.19 ± 0.11	1002.15 ± 0.11	1002.12 ± 0.11	1002.07 ± 0.11	1002.03 ± 0.11
m1 = 0.0808	1002.71 ± 0.11	1002.7 ± 0.11	1002.67 ± 0.11	1002.64 ± 0.11	1002.61 ± 0.11	1002.59 ± 0.11	1002.55 ± 0.11	1002.5 ± 0.11	1002.46 ± 0.11	1002.41 ± 0.11
m1 = 0.1014	1003.42 ± 0.11	1003.4 ± 0.11	1003.37 ± 0.11	1003.35 ± 0.11	1003.31 ± 0.11	1003.28 ± 0.11	1003.25 ± 0.11	1003.2 ± 0.11	1003.16 ± 0.11	1003.11 ± 0.11
m1 = 0.1196	1004.08 ± 0.11	1004.06 ± 0.11	1004.03 ± 0.11	1004 ± 0.11	1003.97 ± 0.11	1003.94 ± 0.11	1003.9 ± 0.11	1003.86 ± 0.11	1003.81 ± 0.11	1003.76 ± 0.11
m1 = 0.1326	1004.49 ± 0.11	1004.47 ± 0.11	1004.44 ± 0.11	1004.41 ± 0.11	1004.38 ± 0.11	1004.35 ± 0.11	1004.31 ± 0.11	1004.26 ± 0.11	1004.21 ± 0.11	1004.16 ± 0.11
m1 = 0.1555	1005.24 ± 0.15	1005.21 ± 0.15	1005.19 ± 0.15	1005.15 ± 0.15	1005.12 ± 0.15	1005.09 ± 0.15	1005.04 ± 0.15	1005 ± 0.15	1004.95 ± 0.15	1004.9 ± 0.15
m1 = 0.1568	1005.37 ± 0.15	1005.35 ± 0.15	1005.32 ± 0.15	1005.29 ± 0.15	1005.25 ± 0.15	1005.22 ± 0.14	1005.18 ± 0.15	1005.13 ± 0.15	1005.08 ± 0.15	1005.03 ± 0.15
m1 = 0.1835	1006.18 ± 0.11	1006.15 ± 0.11	1006.12 ± 0.11	1006.09 ± 0.11	1006.05 ± 0.11	1006.02 ± 0.11	1005.98 ± 0.11	1005.93 ± 0.11	1005.88 ± 0.11	1005.83 ± 0.11
m1 = 0.2076	1006.97 ± 0.11	1006.94 ± 0.11	1006.91 ± 0.11	1006.87 ± 0.11	1006.83 ± 0.11	1006.8 ± 0.11	1006.75 ± 0.11	1006.7 ± 0.11	1006.65 ± 0.11	1006.6 ± 0.11
m1 = 0.2212	1007.63 ± 0.12	1007.6 ± 0.12	1007.57 ± 0.12	1007.53 ± 0.12	1007.5 ± 0.12	1007.46 ± 0.12	1007.41 ± 0.12	1007.36 ± 0.12	1007.31 ± 0.12	1007.26 ± 0.12
